Results taken from US8952024B2, “Herbicidal pyrimidone derivatives” (E I du Pont de Nemours and Company, priority 2009, dated 2015).

Legend:
Assay type in all cases: in vivo
[1] = tested on: wheat (Triticum aestivum); experiment: Test A pre-/postemergence plant response
In short: (§1)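 Formulated test chemicals (non-phytotoxic solvent, surfactant) were sprayed onto soil right after planting and simultaneously onto young plants at one to two leaves, 2 to 10 cm tall. Plants stayed in the greenhouse about ten days; injury was then visually scored against untreated controls, from 0 (no effect) to 100 (complete control).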

[2] = tested on: barnyardgrass (Echinochloa crus-galli); experiment: Test A pre-/postemergence plant response
In short: as §1

[3] = tested on: morningglory (Ipomoea spp.); experiment: Test A pre-/postemergence plant response
In short: as §1

[4] = tested on: giant foxtail (Setaria faberii); experiment: Test A pre-/postemergence plant response
In short: as §1

[5] = tested on: pigweed (Amaranthus retroflexus); experiment: Test A pre-/postemergence plant response
In short: as §1

[6] = tested on: large crabgrass (Digitaria sanguinalis); experiment: Test A pre-/postemergence plant response
In short: as §1

[7] = tested on: velvetleaf (Abutilon theophrasti); experiment: Test A pre-/postemergence plant response
In short: as §1

corn (Zea mays) = experiment: Test A pre-/postemergence plant response
In short: as §1

rice (Oryza sativa) = experiment: Test B flooded paddy test; settings: for Plant response rating, Flood, Rice: 250 g ai/ha, flooded paddy test, visual rating on 0 to 100 scale (0 no effect, 100 complete control) after 13 to 15 days; for Plant response rating, Rice: Flood (flooded paddy test), 13 to 15 days; for Rice plant response rating: Flood, scale 0 to 100 (0 no effect, 100 complete control)
In short: (§2)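 Ratings are visual, 0–100 (100 = complete control), taken versus untreated controls 13 to 15 days after treatment in the greenhouse. Compound went straight into paddy water held 3 cm above soil, applied to 2-leaf-stage plants of four species.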

[8] = tested on: barnyardgrass (Echinochloa crus-galli); experiment: Test B flooded paddy test; settings: for Plant response rating, Flood, Barnyardgrass: 250 g ai/ha, flooded paddy test, visual rating on 0 to 100 scale (0 no effect, 100 complete control) after 13 to 15 days; for Plant response rating, Barnyardgrass: Flood (flooded paddy test), 13 to 15 days; for Barnyardgrass plant response rating: Flood, scale 0 to 100 (0 no effect, 100 complete control)
In short: as §2

[9] = tested on: umbrella sedge (Cyperus difformis); experiment: Test B flooded paddy test; settings: for Plant response rating, Flood, Sedge, Umbrella: 250 g ai/ha, flooded paddy test, visual rating on 0 to 100 scale (0 no effect, 100 complete control) after 13 to 15 days; for Plant response rating, Sedge, Umbrella: Flood (flooded paddy test), 13 to 15 days; for Sedge, Umbrella plant response rating: Flood, scale 0 to 100 (0 no effect, 100 complete control)
In short: as §2

[10] = tested on: ducksalad (Heteranthera limosa); experiment: Test B flooded paddy test; settings: for Plant response rating, Flood, Ducksalad: 250 g ai/ha, flooded paddy test, visual rating on 0 to 100 scale (0 no effect, 100 complete control) after 13 to 15 days; for Plant response rating, Ducksalad: Flood (flooded paddy test), 13 to 15 days; for Ducksalad plant response rating: Flood, scale 0 to 100 (0 no effect, 100 complete control)
In short: as §2

[11] = Postemergence, 125 g ai/ha, visual injury, 0 to 100 scale (0 no effect, 100 complete control), approx. ten days
[12] = Postemergence, 500 g ai/ha, visual injury, 0 to 100 scale (0 no effect, 100 complete control), approx. ten days
[13] = Preemergence, 125 g ai/ha, 0 to 100 scale where 0 is no effect and 100 is complete control, approximately ten days
[14] = Preemergence, 500 g ai/ha, 0 to 100 scale, 0 = no effect, 100 = complete control
[15] = Postemergence, 125 g ai/ha, 0 to 100 scale where 0 is no effect and 100 is complete control
[16] = 62 g ai/ha, scale of 0 to 100 where 0 is no effect and 100 is complete control
[17] = 125 g ai/ha, scale 0 to 100, 0 is no effect, 100 is complete control
[18] = Postemergence, 500 g ai/ha, 0 to 100 scale, 0 = no effect, 100 = complete control, approx. ten days
[19] = Preemergence, 125 g ai/ha, 0 to 100 scale, 0 = no effect, 100 = complete control
[20] = Preemergence, 500 g ai/ha, visual injury, 0 to 100 scale (0 no effect, 100 complete control), approx. ten days
[21] = 31 g ai/ha, scale of 0 to 100 where 0 is no effect and 100 is complete control

Q: What does the source list for O=C(C1=C(O)C2CCC(C2)C1=O)c1cnc(-c2ccccc2)n(C2CCCCC2)c1=O (stereo not drawn) [Compound 248]?
A: Plant response rating, Wheat [1, 11]: 0; Wheat plant response rating [1, 12]: 0; Plant response rating, Wheat [1, 13]: 0; Plant response rating, Wheat [1, 14]: 20; Plant response rating, Barnyardgrass [2, 15]: 90; Barnyardgrass plant response rating [2, 12]: 100; Plant response rating, Barnyardgrass [2, 13]: 0; Plant response rating, Barnyardgrass [2, 14]: 30; Plant response rating, Morningglory [3, 11]: 100; Morningglory plant response rating [3, 12]: 100; Plant response rating, Morningglory [3, 13]: 0; Plant response rating, Morningglory [3, 14]: 40; Plant response rating, Foxtail, Giant [4, 11]: 50; Foxtail, Giant plant response rating [4, 12]: 100; Plant response rating, Foxtail, Giant [4, 13]: 10; Plant response rating, Foxtail, Giant [4, 14]: 20; Plant response rating, Pigweed [5, 11]: 80; Pigweed plant response rating [5, 12]: 90; Plant response rating, Pigweed [5, 13]: 0; Plant response rating, Pigweed [5, 14]: 40; Plant response rating, Crabgrass, Large [6, 15]: 50; Crabgrass, Large plant response rating [6, 12]: 80; Plant response rating, Crabgrass, Large [6, 13]: 10; Plant response rating, Crabgrass, Large [6, 14]: 70; Plant response rating, Velvetleaf [7, 11]: 100; Velvetleaf plant response rating [7, 12]: 100; Plant response rating, Velvetleaf [7, 13]: 20; Plant response rating, Velvetleaf [7, 14]: 60; Plant response rating, Corn (corn (Zea mays); [15]): 0; Corn plant response rating (corn (Zea mays); [12]): 30; Plant response rating, Corn (corn (Zea mays); [13]): 0; Plant response rating, Corn (corn (Zea mays); [14]): 20; Plant response rating, Flood, Rice (rice (Oryza sativa)): 0; Plant response rating, Rice (rice (Oryza sativa); [16]): 0; Plant response rating, Rice (rice (Oryza sativa); [17]): 0; Rice plant response rating (rice (Oryza sativa); 31 g ai/ha): 0; Plant response rating, Flood, Barnyardgrass [8]: 40; Plant response rating, Barnyardgrass [8, 16]: 0; Plant response rating, Barnyardgrass [8, 17]: 0; Barnyardgrass plant response rating ([8]; 31 g ai/ha): 0; Plant response rating, Flood, Sedge, Umbrella [9]: 85; Plant response rating, Sedge, Umbrella [9, 16]: 65; Plant response rating, Sedge, Umbrella [9, 17]: 75; Sedge, Umbrella plant response rating ([9]; 31 g ai/ha): 50; Plant response rating, Flood, Ducksalad [10]: 90; Plant response rating, Ducksalad [10, 16]: 80; Plant response rating, Ducksalad [10, 17]: 80; Ducksalad plant response rating ([10]; 31 g ai/ha): 75

Q: What does the source list for O=C1CCCC(O)=C1C(=O)c1cnc(-c2ccccc2)n(-c2ccc(F)cc2F)c1=O [Compound 57]?
A: Wheat plant response rating [1, 11]: 0; Plant response rating, Wheat [1, 18]: 10; Plant response rating, Wheat [1, 19]: 0; Plant response rating, Wheat [1, 20]: 0; Barnyardgrass plant response rating [2, 11]: 70; Plant response rating, Barnyardgrass [2, 18]: 90; Plant response rating, Barnyardgrass [2, 19]: 40; Plant response rating, Barnyardgrass [2, 20]: 90; Morningglory plant response rating [3, 11]: 50; Plant response rating, Morningglory [3, 18]: 60; Plant response rating, Morningglory [3, 19]: 20; Plant response rating, Morningglory [3, 20]: 80; Foxtail, Giant plant response rating [4, 11]: 80; Plant response rating, Foxtail, Giant [4, 18]: 90; Plant response rating, Foxtail, Giant [4, 19]: 70; Plant response rating, Foxtail, Giant [4, 20]: 90; Pigweed plant response rating [5, 11]: 90; Plant response rating, Pigweed [5, 18]: 100; Plant response rating, Pigweed [5, 19]: 90; Plant response rating, Pigweed [5, 20]: 100; Crabgrass, Large plant response rating [6, 11]: 80; Plant response rating, Crabgrass, Large [6, 18]: 90; Plant response rating, Crabgrass, Large [6, 19]: 90; Plant response rating, Crabgrass, Large [6, 20]: 100; Velvetleaf plant response rating [7, 11]: 100; Plant response rating, Velvetleaf [7, 18]: 100; Plant response rating, Velvetleaf [7, 19]: 80; Plant response rating, Velvetleaf [7, 20]: 100; Corn plant response rating (corn (Zea mays); [11]): 0; Plant response rating, Corn (corn (Zea mays); [18]): 40; Plant response rating, Corn (corn (Zea mays); [19]): 0; Plant response rating, Corn (corn (Zea mays); [20]): 0; Plant response rating, Flood, Rice (rice (Oryza sativa)): 25; Plant response rating, Rice (rice (Oryza sativa); [21]): 0; Plant response rating, Rice (rice (Oryza sativa); [16]): 0; Plant response rating, Rice (rice (Oryza sativa); [17]): 15; Plant response rating, Flood, Barnyardgrass [8]: 25; Plant response rating, Barnyardgrass [8, 21]: 0; Plant response rating, Barnyardgrass [8, 16]: 0; Plant response rating, Barnyardgrass [8, 17]: 20; Plant response rating, Flood, Sedge, Umbrella [9]: 75; Plant response rating, Sedge, Umbrella [9, 21]: 0; Plant response rating, Sedge, Umbrella [9, 16]: 0; Plant response rating, Sedge, Umbrella [9, 17]: 50; Plant response rating, Flood, Ducksalad [10]: 60; Plant response rating, Ducksalad [10, 21]: 0; Plant response rating, Ducksalad [10, 16]: 0; Plant response rating, Ducksalad [10, 17]: 40

Q: What does the source list for CCCn1c(-c2cccs2)ncc(C(=O)c2cnn(CC)c2O)c1=O [Compound 221]?
A: Plant response rating, Wheat [1, 15]: 0; Wheat plant response rating [1, 12]: 0; Plant response rating, Wheat [1, 19]: 0; Plant response rating, Wheat [1, 14]: 0; Plant response rating, Barnyardgrass [2, 15]: 10; Barnyardgrass plant response rating [2, 12]: 20; Plant response rating, Barnyardgrass [2, 19]: 0; Plant response rating, Barnyardgrass [2, 14]: 0; Plant response rating, Morningglory [3, 15]: 10; Morningglory plant response rating [3, 12]: 20; Plant response rating, Morningglory [3, 19]: 0; Plant response rating, Morningglory [3, 14]: 0; Plant response rating, Foxtail, Giant [4, 15]: 0; Foxtail, Giant plant response rating [4, 12]: 10; Plant response rating, Foxtail, Giant [4, 19]: 0; Plant response rating, Foxtail, Giant [4, 14]: 10; Plant response rating, Pigweed [5, 15]: 40; Pigweed plant response rating [5, 12]: 70; Plant response rating, Pigweed [5, 19]: 0; Plant response rating, Pigweed [5, 14]: 60; Plant response rating, Crabgrass, Large [6, 15]: 10; Crabgrass, Large plant response rating [6, 12]: 20; Plant response rating, Crabgrass, Large [6, 19]: 0; Plant response rating, Crabgrass, Large [6, 14]: 10; Plant response rating, Velvetleaf [7, 15]: 80; Velvetleaf plant response rating [7, 12]: 80; Plant response rating, Velvetleaf [7, 19]: 20; Plant response rating, Velvetleaf [7, 14]: 30; Plant response rating, Corn (corn (Zea mays); [15]): 0; Corn plant response rating (corn (Zea mays); [12]): 20; Plant response rating, Corn (corn (Zea mays); [19]): 0; Plant response rating, Corn (corn (Zea mays); [14]): 0; Plant response rating, Flood, Rice (rice (Oryza sativa)): 15; Plant response rating, Rice (rice (Oryza sativa); [16]): 0; Plant response rating, Rice (rice (Oryza sativa); [17]): 0; Rice plant response rating (rice (Oryza sativa); 31 g ai/ha): 0; Plant response rating, Flood, Barnyardgrass [8]: 20; Plant response rating, Barnyardgrass [8, 16]: 0; Plant response rating, Barnyardgrass [8, 17]: 0; Barnyardgrass plant response rating ([8]; 31 g ai/ha): 0; Plant response rating, Flood, Sedge, Umbrella [9]: 75; Plant response rating, Sedge, Umbrella [9, 16]: 60; Plant response rating, Sedge, Umbrella [9, 17]: 75; Sedge, Umbrella plant response rating ([9]; 31 g ai/ha): 0; Plant response rating, Flood, Ducksalad [10]: 70; Plant response rating, Ducksalad [10, 16]: 65; Plant response rating, Ducksalad [10, 17]: 70; Ducksalad plant response rating ([10]; 31 g ai/ha): 20
